One compound from patent US20030039657A1, “Inducible vaccines” (priority 1999, published 2003) can be followed below.

The test deals with humoral immune response against hAAT. Put plainly: Anti-hAAT antibody (humoral immune response) in mouse serum by ELISA after gene-gun DNA inoculation. The class given is in vivo, balb/c mice.

Description: Five to 7-week-old female Balb/c mice were given 4 μg reporter (P4U-hAAT) and 200 ng effector (GS1158) of the mifepristone-inducible plasmid DNA divided into four shots. Mifepristone was given i.p. 20 weeks after DNA administration (Day 140, 142, 144). Blood samples were take from the tail vein at various time points and anti-hAAT levels were determined by ELISA. Values are mean +/−SD for three mice per group. The control is with no drug treatment.
Specific-pathogen-free (5-7 weeks old), female balb/c mice were purchased from Jackson Labs (Bar Harbor, Me.). A biolistic gene gun (Rumsey-Loomis, Ithaca, N.Y.) was used to deliver plasmid DNA into the skin of mouse ears (Williams et al., 1991; Johnston and Tang 1993). Briefly, DNA was precipitated onto gold micro-projectiles (3±1 μm diameter, Metz Metallurgical Corp., South Plainfield, N.J.) at 4 μg DNA/mg gold. Each mouse received four shots of gold-DNA and each shots contains 1 μg reporter (P4U-AAT) and 50 ng effector (GS-1158) plasmid DNA. The drug (RU486, Sigma) was given intraperitoneally on days 1, 3, 5, and also on day 14, 16, in a dose of 500 μg/kg/day in 100 μl sesame oil, after DNA injection. […] The blood samples of the mice was collected from the tail vein at the time point as indicated. The anti-hAAT antibodies in the serum was measured using enzyme-linked immuno enzyme-linked immunosorbent assay (ELISA, Tang et al. 1992). Briefly, ninety six-well plats were coated with 1 μg hAAT per well in 50 μl phosphate buffered saline (PBS) (for overnight at 4° C. and 100 μl blocking buffer (3% bovine serum albumin (3SA) in PBS with 0.05% tween 20) was added and incubated for 2 hrs at room temperature. After 3 times washing with PBS plus 0.05% tween 20, the serum samples (diluted 1:200 in blocking buffer) were added into the well and incubated overnight at 4° C., then further incubated with horseradish peroxidase-conjugated goat anti-mouse immunoglobulin G and M (Jackson ImmunResearch, West Grove, Pa.) for 1 h at room temperature. The plate was washed and developed with TMB buffer solution (Calbiochem). The optical density was read at 450 nm and concentration of the antibodies was determined according to the standard curve.
The mice were given RU486 intraperitoneally in week 7 (Day 50, 52, 54) after the DNA injection in the drug and the Van Gogh (removed the site of the DNA inoculation, ear) groups. The ear cut was performed before administering the drug. The value shown is the mean with standard deviation for experiments on three mice.

Regarding `CC#C[C@]1(O)CC[C@H]2[C@@H]3CCC4=CC(=O)CCC4=C3[C@@H](c3ccc(N(C)C)cc3)C[C@@]21C` [RU486, mifepristone], the “anti-hAAT antibody levels, time of peak” value (FIG. 3, 4 shots of 1 μg P4U-AAT + 50 ng GS-1158, RU486 500 μg/kg/day ip days 1, 3, 5, 14, 16) was “reached peak levels at the third week”. In addition, the “anti-hAAT immune response, inducibility by ligand” value is “inducible by simply giving the ligand three weeks after the primary injection of the DNA” (FIG. 4, RU486 on week 3 (day 21, 23, 25) after DNA, 1 μg reporter and 50 ng effector per shot); “inducible 7 weeks after the DNA injection” (FIG. 6, RU486 ip in week 7 (Day 50, 52, 54) after DNA injection). Also, the “anti-hAAT immune response after removal of the DNA inoculation site (Van Gogh group)” value (FIG. 6, ear cut before RU486 in week 7) is reported as “the original vaccine site was not required for induction”.
